According to a melting point compilation (Tetko et al.; mined from patent text by program, amines drawn as free bases though some values may be those of a salt):

SMILES	melting point [°C]
COc1cccc(Cl)c1C1SC(=O)NC1=O (stereo not drawn)	195 to 197
COc1nccnc1NS(=O)(=O)c1ccc(Cl)s1	119 to 120
CC(=O)Nc1ccc2c3c(cccc13)S(=O)(=O)C(C)N2 (stereo not drawn)	189 to 190
O=C(O)c1cccc(-c2cccc3nc(Cc4cccc(C(F)(F)F)c4)oc23)c1	175 to 176
c1ccc(Nc2ccc(-c3ccc(N(c4ccccc4)c4ccc(-c5ccccc5)cc4)cc3)cc2)cc1	127
CCCCCCCCCC[C@H](NP(=O)(c1ccccc1)c1ccccc1)c1ccccc1	95 to 96
CC1N=C(c2ccccc2)c2cc(Br)ccc2NC1=O (stereo not drawn)	210 to 212
CC(=O)SCCC(=O)N1CCC=C1C(=O)OC(C)(C)C	59 to 62
COc1ccc(-c2ccc(N)nn2)cc1OC(C)C	184
O=C(O)CCC1=C2C(=CC(Cl)=CC2(F)Cl)NC1C(=O)O (stereo not drawn)	292 to 294
COC(=O)CCCc1c(-c2ccc(F)cc2)[nH]c2ccc(-c3ccc([N+](=O)[O-])cc3)cc12	190 to 191
Cc1ccc(NC(=O)c2ccc(C(=O)Nc3ccccc3NC(=O)OC(C)(C)C)s2)cc1Nc1nccc(-c2cccnc2)n1	206 to 208
CCOC(=O)c1nc2sc(Br)c([N+](=O)[O-])c2c(=O)[nH]1	284
NC1=NC2(O)c3ccc(Cl)cc3CC2(F)S1 (stereo not drawn)	159
Nc1nccnc1C=O	110 to 114
CCOC(=O)c1cc(F)c(SCC)nc1NCc1ccc(OC)cc1	59
O=C1NC2(C(=O)O)CC3CC1C2C3 (stereo not drawn)	298 to 300
CN(CC(=O)O)C(=S)c1ccc(Cl)cc1	72 to 73
CC12CCC3C(CCC4CC=CCC43C)C1CC=C2I (stereo not drawn)	71 to 72
N#CC(C(=O)Nc1cccc(F)c1)C(=O)c1nn(-c2ccccc2)c2c1Cc1ccccc1-2 (stereo not drawn)	278 to 284
CCOC(=O)C(C)=Cc1ccc2cc[nH]c2c1	88 to 91
O=P(O)(O)C(c1cccc(C(F)(F)F)c1)c1cccc(C(F)(F)F)c1	191 to 193

SMILES	melting point [°C]
CC(=O)C1CCC2C3CCC4CC(O)C(N5CCOC(Cc6ccccc6)C5)CC4(C)C3C(=O)CC12C (stereo not drawn)	160 to 162
CCCCC[C@@H](CNC(=O)Nc1cccc2c1OC(C)(C)C2)c1cccc2c1OCO2	161 to 162
COc1ccc(-c2csc(Nc3cc(C)ccn3)n2)cc1OC	211 to 213
Nc1ccnc(CSCCO)n1	131 to 134
CS(=O)(=O)c1cccc(-c2cn(-c3nc(-c4ccc(C(F)(F)F)cc4)cc(C(F)(F)F)n3)cn2)c1	231
CN(Cc1ccc([N+](=O)[O-])cc1)C(CO)CO	65 to 66
FC(F)c1cc(Cl)nc2c1c(I)nn2C1CCCCO1 (stereo not drawn)	157
COC(=O)c1cc(=O)c2oc3ccccc3c(=O)c2n1C	290 to 293
N#CC(C(N)=O)c1ccccc1[N+](=O)[O-] (stereo not drawn)	172 to 174
ON=Cc1cc(Cl)ncc1Cl	173 to 174
Cc1cc(NC(=O)c2cc(Cl)cc(C)n2)ccn1	162
COC(=O)C(C)(COS(C)(=O)=O)C(=O)c1ccc(Cl)cc1 (stereo not drawn)	85 to 86
Cc1ccc(Cl)cc1N1CCCN(C)C1=S	143 to 145
FC(F)(F)c1ccc2nc3c(nc2c1)-c1cccc2cccc-3c12	185 to 186
CSc1ccc(C(=O)CBr)c(F)c1	55 to 59
CC(C)C1NC(=O)CN1C(=O)CN (stereo not drawn)	141 to 143
O=[N+]([O-])c1ccc(Oc2ccc(C(F)(F)F)cc2Cl)cc1NCP(=O)(O)O	148 to 150
CS(=O)(=O)c1ccc(-c2cc(=O)n(C3CCCC3)nc2-c2ccc(F)cc2)cc1	191 to 192
COc1c(Cl)ccc(-c2cc(N)c(OC(F)F)c(Cl)n2)c1F	152 to 154
CCn1c(=N)c(-c2cc(OC)cc(OC)c2)cc2cnc(SC)nc21	93 to 95
O=CN(CCOc1ccc2ccccc2c1)c1ccc(C(=O)C(=O)O)cc1	155 to 156
COc1c(C#N)c(OC)c(OC)c(OC)c1OC	64

SMILES	melting point [°C]
CC(O)c1ccc2c3c1ccn3C(=O)CNC2 (stereo not drawn)	295 to 297
COc1cc(CN/C=C2\C(=O)NC(=O)c3ccc(-c4ccc(Oc5ccccc5)cc4)cc32)cc(O)c1OC	240 to 241
CC(=O)CC(=O)CCC(=O)CC(C)=O	62.7 to 64
CCCCCCCCOc1ccc(CC(=O)[C@H]2CC[C@H](CCCCC)CC2)c(F)c1F	59
C[C@H](O)C(=O)N[C@@H]1C(=O)Nc2c(F)cccc2O[C@@H]1C	221 to 225
CCOc1noc2c1CN(C(=O)OC)CCC2	51.5 to 52
COc1c(F)c(F)c([N+](=O)[O-])c2c(=O)c(C(=O)O)cn(C3CC3)c12	216 to 221
O=C1O[C@@H](CO)CN1c1ccc(I)c(F)c1	116 to 117
COc1ccc(CC#N)c(CC#N)c1	49 to 51
CN(C)C=Cc1[nH]c(=O)ccc1C(=O)c1ccco1	238 to 240
COC(=O)c1ccc(CNC(=O)c2[nH]c(-c3cccs3)cc2-c2ccc(F)cc2)cn1	174 to 175
COc1ccc2c(c1Cl)CCCC2=O	130 to 131
CCOC(=O)C(=CNC1CC1)C(=O)c1c(F)c(OC(F)F)c(F)c(F)c1[N+](=O)[O-]	105 to 106
O=C(c1ccccc1F)c1cc2c(c(Cl)c1Cl)OC(CO)C2 (stereo not drawn)	148 to 150
CC(C)Oc1cc(/C=C/C(=O)O)n(Cc2ccc(C(F)(F)F)cc2Cl)n1	170 to 171
O=C(NCc1ccc(Cl)cc1)c1cn(CCc2ccccc2)c2oc(CCl)cc2c1=O	150 to 153
COC(=O)c1ccc([C@H]2CCN(C(=O)OC(C)(C)C)C[C@@H]2O)cc1 (racemic)	146
Fc1cc(N2CCNCC2)c2ncccc2c1	103
COCC(C)NC1=NS(=O)(=O)c2cnccc2N1 (stereo not drawn)	174 to 178
CCNc1nc(NC2CC2)cc(SC)n1	75 to 76
O=C(OCc1ccccc1)OCC1OC(n2cc(F)c(=O)[nH]c2=O)C(O)C1O (stereo not drawn)	66 to 68
CC(O)(c1ccc(F)cc1)C1CCN(CC2CC(c3ccc4[nH]c(=O)oc4c3)=NO2)CC1 (stereo not drawn)	125 to 134

Now from value to compound:

melting point [°C]	SMILES
87 to 88	CCOc1ccc(C)c(N(Cc2ccccc2)C(=O)C(C)(C)Br)c1
106 to 108	COc1cc(Nc2c(C#N)cnc3sc(-c4ccc(CN5CCOCC5)cc4)cc23)c(Cl)cc1Cl
184 to 185	CCOc1ccc2c(c1)CCN(C(=O)OCc1ccccc1)C21CCC(C(=O)O)(C(=O)O)CC1
225 to 228	O=C(O)C(=O)c1ccc(OCc2ccc3ccccc3n2)cc1
165 to 168	CCC(CC)c1ccc(Cl)c2nc3n(c12)CCN3c1ccc(Br)cc1Cl
103 to 108	COc1ccc(C)cc1NC(=O)Nc1ccc(C2=CCN(C(=O)Nc3ncccc3CO)CC2)cc1
78 to 87	COc1cc(C2CCN(C(=O)CN(C)C)CC2)ccc1Nc1ncc2ccc(-c3ccccc3OC)n2n1
218 to 220	CC(=O)N1CCc2nc(N)nc(-c3ccc(Cl)cc3)c2C1
229 to 231	CNC(=O)c1ccnc(NC(=O)N2CCC3(CC2)Cc2ccccc2C3)c1
94 to 102	CN1CCC(Nc2nc3ccccc3n2Cc2ccccc2)CC1
72 to 74	COc1ccc2c(c1)Oc1ccccc1C2
105	O=C(NC/C=C/c1ccccc1)c1ccc(Cl)c(Cl)c1
280 to 281	Cc1cc(-c2nc3ccc(N4CCOCC4)cc3c(=O)[nH]2)cc(C)c1OCCO
64 to 67	O=C(NCCN1CCCCC1)N1CCN(c2ccccc2)CC1
179 to 180	O=C(NNS(=O)(=O)c1ccccc1)c1cc2cccc(Cl)c2o1
179	c1ccc(CN2CCCC(c3ncc(-c4cnc(-c5ccccc5)nc4)[nH]3)C2)cc1 (stereo not drawn)
> 350	C[C@@H](Nc1ncnc2[nH]c(-c3ccc(C(=O)O)cc3)cc12)c1ccccc1
139 to 141	O=C1C=C(C(=O)c2ccccc2[N+](=O)[O-])CC(c2ccccc2)N1 (stereo not drawn)
> 250	O=C(O)Cc1cnc2c(NC(=O)c3c(Cl)cccc3Cl)cccc2c1

melting point [°C]	SMILES
203	Cc1ccc(-n2ncc(C(=O)O)c2C)cc1
154	CCCc1nc2ccnn2cc1Cc1ccc(-c2ccccc2C#N)cc1
290	Cc1c(Br)c(=O)n(C2CCCC2)c2nc(Nc3ccc(N4CCNCC4)nc3)ncc12
144 to 146	CC(=O)c1cc(N2CCOCC2)ccc1NC(=O)c1ccccc1OCc1ccccc1
69	Cc1nc(COc2cccc(Cl)c2C)no1
114 to 117	COCCc1nc2c(N)nc3ccccc3c2n1CCOCCNS(C)(=O)=O
155 to 160	O=C(O)c1ccc2c(c1)CCCC2NC(=O)c1cccc(Oc2ccccc2)c1 (stereo not drawn)
283 to 286	NC(=O)c1nc(-c2cccnc2Cl)nc2c1[nH]c(=O)n2-c1ccccc1
223 to 225	COc1nc(Cl)cnc1NS(=O)(=O)c1ccccc1-c1ccc(OC(C)C(=O)O)cc1 (stereo not drawn)
122	COc1ccccc1CNc1ccc2c(-c3noc(C)n3)cccc2n1
198 to 199	N#Cc1cnn2c1N(C(=O)CCl)CC=C2c1ccc(Cl)cc1
70 to 71	CCOC(=O)N1CCC(SC(c2ccccc2)c2ccccc2)CC1
120	NC(=O)[C@@H]1[C@H](Nc2c(Br)cnc3[nH]c(-c4ccccc4-n4cccn4)nc23)[C@H]2C=C[C@@H]1C2
131 to 133	Fc1ccc2[nH]cc([C@H]3CC[C@H](NCc4ccccc4)CC3)c2c1
187 to 188	Cc1ncc(CN2CC=C(C#Cc3ccccc3)CC2)c(N)n1
165	CC(=O)OC1CSC(Oc2ccccc2-c2ccncc2)C(OC(C)=O)C1OC(C)=O (stereo not drawn)
117 to 118	Cc1cc(-c2cccc(C(F)(F)F)c2)c2nc(C(F)(F)F)cnc2c1
212	Cc1ccc(S(=O)(=O)Nc2coc3ccccc3c2=S)cc1
